Laboratory results from publication PMC10215199 (Antioxidants, 2023).
Entries after “also recorded” stand apart in the source; their conditions may differ. Read-outs that look alike come from different tables or passages of the source.

What was measured:
[1] = molecular target: T1, acetylcholinesterase (AChE) (Mus musculus, UniProt P21836); assay: Acetylcholinesterase inhibition assay (Ellman, mouse whole brain homogenate); type: biochemical; conditions: for IC50: ±SD
T1 construct: The supernatant obtained was used as a source of enzyme for; from tissue; host or cells: whole brain of male ICR mice, supernatant of the homogenate
T1 sequence (P21836 32-614): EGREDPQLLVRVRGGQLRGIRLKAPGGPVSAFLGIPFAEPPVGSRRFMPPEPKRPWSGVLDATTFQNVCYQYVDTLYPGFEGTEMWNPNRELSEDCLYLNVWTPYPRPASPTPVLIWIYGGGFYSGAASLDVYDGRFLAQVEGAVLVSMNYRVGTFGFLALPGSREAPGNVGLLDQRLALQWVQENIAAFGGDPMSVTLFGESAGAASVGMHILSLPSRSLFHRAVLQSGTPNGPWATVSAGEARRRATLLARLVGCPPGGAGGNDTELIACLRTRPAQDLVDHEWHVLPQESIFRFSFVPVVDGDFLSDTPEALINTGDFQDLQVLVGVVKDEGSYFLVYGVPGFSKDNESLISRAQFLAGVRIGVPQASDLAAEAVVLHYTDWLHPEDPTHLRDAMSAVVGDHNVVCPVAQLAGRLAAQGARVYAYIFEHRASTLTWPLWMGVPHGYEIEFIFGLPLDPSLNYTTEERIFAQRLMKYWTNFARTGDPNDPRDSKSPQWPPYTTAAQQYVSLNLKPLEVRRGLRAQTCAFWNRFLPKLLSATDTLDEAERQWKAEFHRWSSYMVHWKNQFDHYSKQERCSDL
Description: (§1) of compounds were determined as the mean ± S.E.M. in triplicate from the dose-response inhibition curves using SigmaPlot® 13.0.
2.2. In vitro acetylcholinesterase inhibition assay
(Eyela, Japan) containing 50 volumes of phosphate buffer (pH 8.0, 0.1 M), and then centrifuged at 14,000 rpm for 20 min at 4 °C. The supernatant obtained was used as a source of enzyme for the assay. Each drug was initially dissolved in dimethyl sulfoxide (DMSO) and diluted to various concentrations immediately before use. An aliquot of diluted drug solution was then mixed wit h 640 μL of phosphate buffer (0.1 M, pH 8.0), 25 μL of buffered Ellman’s reagent (10 mM 5,5′- dithio-bis(2-nitrobenzoic acid) and 15 mM sodium bicarbonate), and the enzyme source (100 μL) and pre-incubated at room temperature for 10 min. Then 5 μL of acetylthiocholine iodide solution (75 mM) was added to this mixture and mixed. Absorbance was measured at 410 nm after 10 min for the reaction adding 5 μL of acetylthiocholine iodide solution (75 mM) and to the reaction mixtures (OPTIZEN 2120UV, Mecasys Co. Ltd, Korea).

MAO-A = conditions: Figure 1, cited from earlier work
MAO-B = conditions: cited from earlier work
recombinant human MAO-A = molecular target: T2, recombinant human MAO-A (Homo sapiens, UniProt P21397); assay: Monoamine oxidase-A inhibition assay (Amplex red fluorescence); type: biochemical; conditions: for inhibition at 1 µM: read-out: % Inhibition MAO-A; for inhibition at 100 µM: read-out: MAO-A % Inhibition; for MAO-A % Inhibition: 100 µM
T2 sequence (P21397 1-527): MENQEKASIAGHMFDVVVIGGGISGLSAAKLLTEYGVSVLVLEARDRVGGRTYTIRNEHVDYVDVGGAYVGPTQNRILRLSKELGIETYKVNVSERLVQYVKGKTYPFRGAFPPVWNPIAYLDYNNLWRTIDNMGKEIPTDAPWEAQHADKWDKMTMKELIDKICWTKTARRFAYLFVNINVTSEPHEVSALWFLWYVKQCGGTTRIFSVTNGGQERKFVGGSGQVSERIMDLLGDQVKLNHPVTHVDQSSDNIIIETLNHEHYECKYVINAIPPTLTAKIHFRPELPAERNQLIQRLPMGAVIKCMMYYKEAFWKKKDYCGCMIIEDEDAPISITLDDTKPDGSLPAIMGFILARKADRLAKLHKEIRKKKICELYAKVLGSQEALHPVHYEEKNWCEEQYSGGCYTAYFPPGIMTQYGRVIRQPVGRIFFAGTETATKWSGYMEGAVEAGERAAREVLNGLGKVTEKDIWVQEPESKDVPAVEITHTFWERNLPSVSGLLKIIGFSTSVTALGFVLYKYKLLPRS
Description: Two isoforms of MAOs, namely MAO-A and MAO-B, are expressed in CNS, showing different substrate specificity. Consequently, different pharmacological effects can be elicited depending on the inhibited MAO isoform. Therefore, the prepared O^6-aminoalkyl-hispidol analogs were evaluated against both recombinant human MAO-A and MAO-B isoforms following the well-established spectrophotometric method.
2. Biological evaluations
2.1. In vitro assay of human monoamine oxidases inhibition
The MAO activity was quantified by measuring fluorescence intensity evoked by Amplex red reaction in which Amplex red reacts with hydrogen peroxide from the MAO reaction to produce highly fluorescent resorufin. The test compound in DMSO (final concentration: 1 nM – 10 μM or 10 nM – 100 μM ) and hMAO enzyme (Sigma Aldrich, St. Louis, MO, USA) in 50 mM sodium phosphate buffer (pH 7.4, final protein amount: ~1.25 μg of MAO-A/well and 2.5 μg of MAO-B/well) were loaded on 96-well black plate and incubated for 15 min at 37 °C. Then working solution of 200 μM Amplex Red (Cayman, Ann Arbor, MI, USA), 1 U/mL horseradish peroxidase (Sigma-Aldrich) and 1 mM substrate (p-tyramine for MAO-A, benzylamine for MAO-B, Sigma-Aldrich) in 50 mM sodium phosphate buffer (pH 7.4) was added and incubated for 20 min at 37 °C in the dark. The fluorescence was measured using a microplate reader (SpectraMax®i3, Molecular Device, San Jose, CA, USA) with an excitation at 545 nm and an emission at 590 nm. […]
as §1

recombinant human MAO-B = molecular target: T3, recombinant human MAO-B (Homo sapiens, UniProt P27338); assay: biochemical; conditions: for MAO-B Selectivity Index: calculated from MAO-A and MAO-B IC50 values; for inhibition at 10 µM: single dose concentration of 10 µM; for inhibition at 10 µM / IC50: ±sem; for IC50: five doses
T3 construct: purchased Sigma Aldrich
T3 sequence (P27338 1-520): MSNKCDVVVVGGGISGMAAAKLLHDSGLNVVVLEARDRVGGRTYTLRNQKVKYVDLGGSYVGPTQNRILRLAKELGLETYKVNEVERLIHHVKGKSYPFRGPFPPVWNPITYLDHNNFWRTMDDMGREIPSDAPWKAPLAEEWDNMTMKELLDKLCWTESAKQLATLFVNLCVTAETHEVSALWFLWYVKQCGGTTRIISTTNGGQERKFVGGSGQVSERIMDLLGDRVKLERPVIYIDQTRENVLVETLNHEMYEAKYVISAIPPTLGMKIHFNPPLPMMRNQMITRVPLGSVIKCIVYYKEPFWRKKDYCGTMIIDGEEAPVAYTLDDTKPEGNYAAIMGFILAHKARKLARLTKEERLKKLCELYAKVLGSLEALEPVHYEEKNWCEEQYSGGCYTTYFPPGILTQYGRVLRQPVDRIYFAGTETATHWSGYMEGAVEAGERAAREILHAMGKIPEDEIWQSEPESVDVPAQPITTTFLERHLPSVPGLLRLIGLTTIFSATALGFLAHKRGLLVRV

[2] = system: PGE2 production in LPS-induced BV2 cells; assay: Inhibition of LPS-induced production of PGE2 in BV2 cells; type: cell-based, murine; conditions: LPS 500 ng/ml
Description: indicated concentrations of test compounds for 24 h. After replacing the culture media with fresh
2.3.2. Inhibition of LPS-induced production of PGE2
The concentrations of PGE2 in
Sciences, NY, USA) according to the manufacturer’s instructions. […]

[3] = system: scopolamine-induced cognitive deficits; assay: Passive avoidance test, scopolamine-induced cognitive deficits; type: in vivo; conditions: scopolamine 1 mg/kg i.p., mice
[4] = system: immobility in forced swim test; assay: Forced swim test, acute treatment; conditions: 1 and 10 mg/kg p.o.; for Immobility time in forced-swim test: versus control group
AChE = system: AChE; parameters: method as in PMID 31891098; conditions: chromone-based compound 1, Figure 1; cited from earlier work
microglial BV2 cells = assay: BV2 cell viability (WST-1 assay); conditions: up to 10 micromolar, in presence of LPS, 24 h
Description: 2.3. In vitro cellular evaluations
2.3.1. Cell culture and viability determination
Murine BV2 microglial cells obtained from the Korean Cell Line Bank (Seoul, Republic of Korea) were cultured in DMEM with 10% FBS, 100 U/ml penicillin, and 100 μg/ml streptomycin at 37°C in a humidified 5% CO2 atmosphere. Cell viability and toxicity were determined by the WST-1 assay (Roche, Mannheim, Germany). Briefly, BV2 cells in sterile plates were incubated with the […]

[5] = single dose concentration of 1 µM, ±sem, NI = no measured inhibition
[6] = single dose concentration of 100 µM, ±sem
[7] = 10 mg/kg p.o., donepezil 5 mg/kg p.o. as comparator

In the case of `O=C1/C(=C/c2ccc(O)cc2)Oc2cc(O)ccc21` [Hispidol, hispidol], the IC50 [1] is given as 202 µM, the IC50 (MAO-A; reported value for hispidol) is given as 0.26 µM and the IC50 (MAO-B; reported value for hispidol) is given as 2.45 µM.
With `CCN(CC)CCOc1ccc2c(c1)O/C(=C\c1ccccc1OC)C2=O` [Compound 3aa] the inhibition at 1 µM (recombinant human MAO-A; [5]) was < 0%, the inhibition at 100 µM (recombinant human MAO-A; [6]) was 27.2 ± 2.94% and the IC50 (recombinant human MAO-A; ±sem, read-out: MAO-A IC50) was > 100 µM. The “MAO-B Selectivity Index” value (recombinant human MAO-B) was >104, the inhibition at 10 µM (recombinant human MAO-B) was 91.49 ± 0.27% and the IC50 (recombinant human MAO-B) was 0.96 ± 0.004 µM. For the same molecule, the “AChE potency relative to the reference galantamine” value ([1]; ratio of potency) was ~1.8 times, the IC50 [1] was 2.67 ± 0.05 µM and the “LPS-induced PGE2 production in BV2 cells” value ([2]; 10 micromolar dose) was “returned to almost normal levels”. The “LPS-induced PGE2 production in BV2 cells” value ([2]; five micromolar concentration) was “attrition of the inhibitory effect”, the “Latency in the retention experiment, passive avoidance” value (“Latency in the retention experiment” below) ([3]; 1 mg/kg p.o.) was “did not show significant amelioration of cognitive deficits” and the “Latency in the retention experiment” value [3, 7] was “did not show significant amelioration of cognitive deficits”. For the same molecule, the “Antidepressant-like effect in forced-swim test” value [4] was “did not show antidepressant-like effects” and the “Immobility time in forced-swim test” value [4] was “significantly increased immobility time”.
In the case of `O=c1ccoc2ccc(OCCCN3CCCCC3)cc12` [Compound 1], the IC50 (AChE) is given as 5.58 µM and the IC50 (MAO-B; chromone-based compound 1, Figure 1) is given as 7.2 µM.
In the case of `COc1cc(/C=C2\Oc3cc(OCCN4CCCC4)ccc3C2=O)cc(OC)c1OC` [Compound 3bc], the IC50 (recombinant human MAO-A) is reported as > 100 µM, the inhibition at 1 µM (recombinant human MAO-A) is reported as < 0% and the inhibition at 100 µM (recombinant human MAO-A) is reported as 21.4 ± 3.51%. The inhibition at 10 µM (recombinant human MAO-B) was 99.3 ± 0.38%, the IC50 (recombinant human MAO-B) was 0.34 ± 0.002 µM and the “LPS-induced PGE2 production in BV2 cells” value ([2]; 10 micromolar dose) was “returned to almost normal levels”. The “LPS-induced PGE2 production in BV2 cells” value ([2]; five micromolar concentration) was “normal PGE2 production level”, the “Cellular viability of microglial BV2 cells” value (microglial BV2 cells) was “absence of cytotoxic activity” and the “Latency in the retention experiment” value ([3]; 1 mg/kg p.o.) was “significantly enhanced latency”. The “Latency in the retention experiment” value [3, 7] was “significantly enhanced latency; also recorded: as effective as donepezil”, the “Antidepressant-like effect in forced-swim test” value [4] was “did not show antidepressant-like effects” and the “Immobility time in forced-swim test” value [4] was “significantly increased immobility time”.
With `COc1ccc(/C=C2\Oc3cc(OCCCCN4CCCC4)ccc3C2=O)cc1` [Compound 3al] the inhibition at 1 µM (recombinant human MAO-A; [5]) was < 0%, the “MAO-A % Inhibition” value (recombinant human MAO-A; [6]) was 14.89 ± 3.46% and the inhibition at 100 µM (recombinant human MAO-A; [6]) was ~15%. For the same molecule, the IC50 (recombinant human MAO-A; ±sem, read-out: MAO-A IC50) was > 100 µM, the “MAO-B Selectivity Index” value (recombinant human MAO-B) was >12 and the inhibition at 10 µM (recombinant human MAO-B) was 49.8 ± 0.02%. The IC50 (recombinant human MAO-B) was 8.65 ± 0.196 µM and the IC50 [1] was 1.42 ± 0.09 µM.
For `COc1ccc(/C=C2\Oc3cc(OCCN4CCCCC4)ccc3C2=O)cc1OC` [Compound 3ap], the inhibition at 1 µM (recombinant human MAO-A; [5]) was < 0%, the “MAO-A % Inhibition” value (recombinant human MAO-A; [6]) was 22.52 ± 0.04% and the inhibition at 100 µM (recombinant human MAO-A; [6]) was ~23%. The IC50 (recombinant human MAO-A; ±sem, read-out: MAO-A IC50) was > 100 µM, the inhibition at 10 µM (recombinant human MAO-B) was 50.81 ± 0.44% and the IC50 (recombinant human MAO-B) was 10.18 ± 0.099 µM.
For `COc1ccc(/C=C2\Oc3cc(O)ccc3C2=O)c(OC)c1OC` [Hispidol Analog], the IC50 (MAO-A; ring-B methoxylated hispidol analog) is given as > 100 µM and the IC50 (MAO-B; ring-B methoxylated hispidol analog, Figure 1) is given as 0.17 µM.
For `COc1ccc(/C=C2\Oc3cc(OCCCCN4CCCCC4)ccc3C2=O)cc1OC` [Compound 3ar], the inhibition at 1 µM (recombinant human MAO-A; [5]) was < 0% and the inhibition at 10 µM (recombinant human MAO-B) was 3.89 ± 1.63%.
